Experimental data from US4396550A, “Dibenz [b,e] oxepin derivatives” (Kyowa Hakko Kogyo Co., Ltd., priority 1980, dated 1983).

Assays:
[1] = test system: blood platelets (platelet-rich plasma); test: Test for the inhibition of platelet aggregation (collagen-induced, platelet-rich plasma); type: cell-based, male white rabbits; conditions: Oryctolagus cuniculus, Platelet, 0.05 h; depressing ratio of 50% of collagen-induced aggregation; compound 3 minutes before; read-out: Antiplatelet aggregation activity: MED
Description: In this test, 9 vols. of blood are sampled from the caroted artery of male white rabbits weighing 2 to 2.5 kg and placed in a silicon-coated flask containing 1 vol. of 3.8% sodium citrate. The thus obtained blood is centrifuged at 1,000 rpm for 15 minutes to obtain platelet-rich plasma. The aggregation of the blood platelets is observed using an aggregometer, when collagen is added to the platelet-rich plasma to the extent of the final concentration that 50% of platelet aggregation is caused in the presence of 100 γ/ml of aspirin. On the other hand, 3 minutes after administration of the test compounds to the platelet-rich plasma, the same procedure as mentioned above is carried out to observe the aggregation of blood platelet. The test compounds showing a depressing ratio of 50%, compared with the inhibition of aggregation by collagen alone, are concluded to have antiplatelet aggregation activity.

[2] = test system: isolated ileum of guinea-pig; test: Test for anticholinergic effects on the isolated ileum of guinea-pig (acetylcholine contraction, in vitro); design: species or system guinea-pig (male Hartly-strain); conditions: Cavia porcellus, 0.05 h; depressing ratio of 80% or more of acetylcholine contraction; compound 3 minutes before; read-out: Anticholinergic activity: MED (minimum effective dose)
Description: (§1) Male Hartly-strain guinea-pigs weighing about 250 g are killed and the abdomen is opened. The part (2-3 cm in length) of the ileum 10 cm away from the caecum to the pylorus is cut off as a preparation. The preparation is suspended with serre-fine in a Magnus bath containing 10 ml of Tyrode's solution at 32±1° C. under an air bubble. The contraction of the ileum is recorded on Kymograph through hebel when 0.1 ml of acetylcholine at a concentration of 10^-3 g/ml is added to the Tyrode's solution.
(§2) On the other hand, 3 minutes after administration of the test compounds, the same procedure as mentioned above is carried out to record the contraction.

[3] = test system: male dd-strain rats; test: Acute toxicity test (minimum lethal dose); type: in vivo; conditions: mortality for 7 days
Description: Groups of male dd-strain rats (each group consisting of five rats) weighing 20±1 g were used. The compounds of the present invention were administered orally (po: 0.3 mg/g) or intraperitoneally (ip: 0.1 mg/g). The MLD (minimum lethal dose) was calculated from the mortality for 7 days after the administration to obtain the results given in Table 1.

[4] = test system: isolated ileum of guinea-pig; test: Test for antihistaminergic effects on the isolated ileum of guinea-pig (histamine contraction, in vitro); design: species or system guinea-pig (male Hartly-strain); conditions: Cavia porcellus, 0.05 h; depressing ratio of 80% or more of histamine contraction; read-out: Antihistaminergic activity: MED
Description: as §1, §2
In this test, 0.1 ml of histamine at a concentration of 5×10^-3 g/l is used.

[5] = Antiasthmatic activity; type: in vivo; conditions: po; read-out: Antiasthmatic activity: MED

Compound	minimal effective concentration [1] [µg/mL]	minimal effective concentration [2] [µg/mL]	Acute toxicity: MLD (minimum lethal dose) ([3]; ip) [mg/kg]	Acute toxicity: MLD (minimum lethal dose) ([3]; po) [mg/kg]	minimal effective concentration [4] [µg/mL]	minimal effective dose [5] [mg/kg]
CCN(CC)CCCNC1c2ccccc2COc2ccc(Cl)cc21 (centres unmarked) [Compound 5, 2-chloro-11-{3-(diethylamino)propyl}amino-6,11-dihydrodibenz[b,e]oxepin]	20	1	> 100	300	1	
Cc1ccc2c(c1)C(NCCc1ccccn1)c1ccccc1CO2 (centres unmarked) [Compound 36, 2-methyl-11-{2-(2-pyridyl)ethyl}amino-6,11-dihydrodibenz[b,e]oxepin]	100	10	100	200	3	
CCN(CC)CCNC1c2ccccc2COc2ccc(Cl)cc21 (centres unmarked) [Compound 10, 2-chloro-11-{2-(diethylamino)ethyl}amino-6,11-dihydrodibenz[b,e]oxepin]	2		> 100	> 300		100
CCc1ccc2c(c1)C(NCCCN(CC)CC)c1ccccc1CO2 (centres unmarked) [Compound 2, 2-ethyl-11-{3-(diethylamino)propyl}amino-6,11-dihydrodibenz[b,e]oxepin]	1	10	100	300	1	
CCN1CCCC(NC2c3ccccc3COc3ccc(C)cc32)C1 (centres unmarked) [Compound 27, 2-methyl-11-(1-ethyl-3-piperidyl)amino-6,11-dihydrodibenz[b,e]oxepin]	100	1	> 100	300	10	
CCN(CC)CCCNC1c2ccccc2COc2ccc(C)cc21 (centres unmarked) [Compound 4, 2-methyl-11-{3-(diethylamino)propyl}amino-6,11-dihydrodibenz[b,e]oxepin]	20	10	100	300	10	
c1ccc(-c2cccc3c2OCc2ccccc2C3NC2CN3CCC2CC3)cc1 (centres unmarked) [Compound 57, 4-phenyl-11-(3-quinuclidinyl)amino-6,11-dihydrodibenz[b,e]oxepin]	10	3	100	> 300	3	
CN1CCN(C2c3ccccc3COc3c(-c4ccccc4)cccc32)CC1 (centres unmarked) [Compound 47, 4-phenyl-11-(4-methyl-1-piperazinyl)-6,11-dihydrodibenz[b,e]oxepin]	10	3	100	200	10	
CCc1ccc2c(c1)C(NC1CC(C)(C)NC(C)(C)C1)c1ccccc1CO2 (centres unmarked) [Compound 63, 2-ethyl-11-{4-(2,2,6,6-tetramethyl)piperidinyl}amino-6,11-dihydrodibenz[b,e]oxepin]	10	3	100	200	3	
CCN(CC)CCCNC1c2ccccc2COc2ccc(F)cc21 (centres unmarked) [Compound 3, 2-fluoro-11-{3-(diethylamino)propyl}amino-6,11-dihydrodibenz[b,e]oxepin]	20	10	> 100	> 300	10	
CCc1ccc2c(c1)C(N1CCN(CCN)CC1)c1ccccc1CO2 (centres unmarked) [Compound 45, 2-ethyl-11-{4-(2-aminoethyl)-1-piperazinyl}-6,11-dihydrodibenz[b,e]oxepin]	100	10	100	> 300	10	
CCC(C)(C)c1ccc2c(c1)C(NC1CN3CCC1CC3)c1ccccc1CO2 (centres unmarked) [Compound 53, 2-(1,1-dimethyl)propyl-11-(3-quinuclidinyl)amino-6,11-dihydrodibenz[b,e]oxepin]		10	50	> 300	1	50
Cc1ccc2c(c1)C(N1CCN(CCO)CC1)c1ccccc1CO2 (centres unmarked) [Compound 37, 2-methyl-11-{4-(2-hydroxyethyl)-1-piperazinyl}-6,11-dihydrodibenz[b,e]oxepin]	50	10	> 100	> 300	10	
c1ccc(-c2ccc3c(c2)C(NC2CN4CCC2CC4)c2ccccc2CO3)cc1 (centres unmarked) [Compound 55, 2-phenyl-11-(3-quinuclidinyl)amino-6,11-dihydrodibenz[b,e]oxepin]	20	3	> 100	> 300	1	
CCN(CC)CCNC1c2ccccc2COc2ccc(C3CCCCC3)cc21 (centres unmarked) [Compound 48, 2-cyclohexyl-11-{2-(diethylamino)ethyl}amino-6,11-dihydrodibenz[b,e]oxepin]	100	3	100	> 300	3	
Cc1ccc2c(c1)C(NCCN1CCOCC1)c1ccccc1CO2 (centres unmarked) [Compound 59, 2-methyl-11-(2-morpholinoethyl)amino-6,11-dihydrodibenz[b,e]oxepin]	100		> 100	200	10	100
CN(C)CCCNC1c2ccccc2COc2ccc(Cl)cc21 (centres unmarked) [Compound 50, 2-chloro-11-{3-(dimethylamino)propyl}amino-6,11-dihydrodibenz[b,e]oxepin]	50	10	> 100	200	3	
CN(C)CCCNC1c2ccccc2COc2ccc(F)cc21 (centres unmarked) [Compound 49, 2-fluoro-11-{3-(dimethylamino)propyl}amino-6,11-dihydrodibenz[b,e]oxepin]	50	3	> 100	> 300	1	
OCCN1CCN(C2c3ccccc3COc3ccc(Cl)cc32)CC1 (centres unmarked) [Compound 40, 2-chloro-11-{4-(2-hydroxyethyl)-1-piperazinyl}-6,11-dihydrodibenz[b,e]oxepin]	100		> 100	> 300	3	50
CCc1ccc2c(c1)C(NCCN1CCNCC1)c1ccccc1CO2 (centres unmarked) [Compound 26, 2-ethyl-11-{2-(1-piperazinyl)ethyl}amino-6,11-dihydrodibenz[b,e]oxepin]	5	3	> 100	> 300	3	
Cc1ccc2c(c1)C(NCCN1CCNCC1)c1ccccc1CO2 (centres unmarked) [Compound 25, 2-methyl-11-{2-(1-piperazinyl)ethyl}amino-6,11-dihydrodibenz[b,e]oxepin]	20	10	> 100	> 300	10	
